Assay results taken from patent US20260207602A1, “EGFR INHIBITORS” (Blueprint Medicines Corporation, priority 2022, published 2026).

What was measured:
[1] = molecular target: T1, EGFR L858R (Homo sapiens, UniProt P00533, L858R); assay: Biochemical EGFR inhibition assay (Caliper mobility shift), EGFR L858R; conditions: biochemical Caliper mobility shift assay, EGFR L858R enzyme; read-out: Enz EGFR L858R IC50
T1 construct: purchased SignalChem E10-122BG
Experimental: (§1) Inhibitory effects of the compounds of the disclosure were measured in biochemical assays that measure the phosphorylation activity of EGFR enzyme phosphorylates 2.5 micromolar 5-FAM-[…]-CONH2 peptide substrate (ProfilerPro Kinase Peptide Substrate 22, PerkinElmer, Part #760366) in the presence of adenosine-5′-triphosphate (ATP) and varying concentrations of the test compound in 100 mM 2-[4-(2-hydroxyethyl)piperazin-1-yl]ethanesulfonic acid (HEPES), pH 7.5, 10 mM MgCl2, 0.015% Brij-35, 1 mM dithiothreitol (DTT), 1.0% dimehylsulfoxide (DMSO). Assays were performed at 1.0 mM ATP or at ATP Km of the EGFR enzymes. Reactions proceeded until between 10% to 20% total peptides were phosphorylated at room temperature (25° C.) and were terminated with 35 mM 2,2′,2″,2′″-(ethane-1,2-diyldinitrilo)tetraacetic acid (EDTA). Product was detected using the Caliper mobility shift detection method where the phosphorylated peptide (product) and substrate were electrophoretically separated and measured. Percent activity was plotted against log concentration of compound and points to generate an apparent IC50. The following enzyme forms of • EGFR were examples that were used in these assays: • EGFR WT (SignalChem, E10-112G) • EGFR L858R (SignalChem, E10-122BG) • EGFR (d746-750) (SignalChem, E10-122JG) • EGFR L858R C797S (SignalChem, E10-122ZG) • EGFR (d746-750) C797S (SignalChem, E10-122TG)

[2] = molecular target: intracellular phosphorylation of EGFR (Tyr1068) in PC-9 cells (Homo sapiens, UniProt P00533, DEL746-750); assay: PC-9 pEGFR AlphaLISA assay; type: cell-based; conditions: 4 hours incubation, read-out: Phos EGFR PC9 IC50
Experimental: PC-9/A431 pEGFR AlphaLISA Assays
Inhibitory effects of compounds were evaluated in cellular assays that measure level of intracellular phosphorylation of EGFR in PC-9 (ECACC, #90071810, Milipore/Sigma) and A431 cell lines (ATCC, CRL-1555) using AlphaLISA sureFire ultra p-EGFR (Tyr1068) assay kit (PerkinElmer, ALSU-PEGFR-A50K). PC-9 cells were seeded at 3.125×10^5 cells/ml in 40 μL phenol-free DMEM supplemented with 10% FBS per well of a 384 well plate (Corning, 3764), while A431 were seeded at […] in 40 μL in phenol-free DMEM with 0.5% FBS. Cells were allowed to adhere overnight at 37° C./5% CO2. On the next day, compounds were transferred at 4-fold, 10-point serial dilution from compound source plate to cell plates using liquid handler Echo550 and were incubated at 37° C./5% CO2 for 4 hours. A431 cells were stimulated prior harvesting for 10 min with EGF at final concentration of 30 ng/ml in the incubator. Medium was removed from the plates and cells were lysed with 10 μL of 1× AlphaLISA lysis buffer (supplemented with 1× protease/phosphatase inhibitor cocktail) followed by shaking at 600 rpm for 30 minutes at room temperature. Lysates were transferred to Optiplate (Apricot designs) and 5 ul of 1× acceptor bead mix (prepared just before use) was added to each well followed by incubation at room temperature for 1.5-2 h in dark. Then 5 μL of freshly-made donor bead mix is added to each well under subdued lighting or green filters, was mixed well on the shaker and the plate was sealed and left for an overnight incubation at room temperature in dark. On the next day, the plate was read the Envision using standard AlphaLisa settings. Percent of pEGFR inhibition was plotted against log concentration of compounds to generate IC50 values.

[3] = molecular target: T2, EGFR (d746-750) (Homo sapiens, UniProt P00533, DEL746-750); assay: Biochemical EGFR inhibition assay (Caliper mobility shift), EGFR (d746-750); conditions: biochemical Caliper mobility shift assay, EGFR Exon 19-del enzyme; read-out: Enz EGFR Exon 19-del IC50
T2 construct: purchased SignalChem E10-122JG
Experimental: as §1

Chain of intracellular phosphorylation of EGFR (Tyr1068) in PC-9 cells (P00533 with tags, fused parts or gaps DEL746-750): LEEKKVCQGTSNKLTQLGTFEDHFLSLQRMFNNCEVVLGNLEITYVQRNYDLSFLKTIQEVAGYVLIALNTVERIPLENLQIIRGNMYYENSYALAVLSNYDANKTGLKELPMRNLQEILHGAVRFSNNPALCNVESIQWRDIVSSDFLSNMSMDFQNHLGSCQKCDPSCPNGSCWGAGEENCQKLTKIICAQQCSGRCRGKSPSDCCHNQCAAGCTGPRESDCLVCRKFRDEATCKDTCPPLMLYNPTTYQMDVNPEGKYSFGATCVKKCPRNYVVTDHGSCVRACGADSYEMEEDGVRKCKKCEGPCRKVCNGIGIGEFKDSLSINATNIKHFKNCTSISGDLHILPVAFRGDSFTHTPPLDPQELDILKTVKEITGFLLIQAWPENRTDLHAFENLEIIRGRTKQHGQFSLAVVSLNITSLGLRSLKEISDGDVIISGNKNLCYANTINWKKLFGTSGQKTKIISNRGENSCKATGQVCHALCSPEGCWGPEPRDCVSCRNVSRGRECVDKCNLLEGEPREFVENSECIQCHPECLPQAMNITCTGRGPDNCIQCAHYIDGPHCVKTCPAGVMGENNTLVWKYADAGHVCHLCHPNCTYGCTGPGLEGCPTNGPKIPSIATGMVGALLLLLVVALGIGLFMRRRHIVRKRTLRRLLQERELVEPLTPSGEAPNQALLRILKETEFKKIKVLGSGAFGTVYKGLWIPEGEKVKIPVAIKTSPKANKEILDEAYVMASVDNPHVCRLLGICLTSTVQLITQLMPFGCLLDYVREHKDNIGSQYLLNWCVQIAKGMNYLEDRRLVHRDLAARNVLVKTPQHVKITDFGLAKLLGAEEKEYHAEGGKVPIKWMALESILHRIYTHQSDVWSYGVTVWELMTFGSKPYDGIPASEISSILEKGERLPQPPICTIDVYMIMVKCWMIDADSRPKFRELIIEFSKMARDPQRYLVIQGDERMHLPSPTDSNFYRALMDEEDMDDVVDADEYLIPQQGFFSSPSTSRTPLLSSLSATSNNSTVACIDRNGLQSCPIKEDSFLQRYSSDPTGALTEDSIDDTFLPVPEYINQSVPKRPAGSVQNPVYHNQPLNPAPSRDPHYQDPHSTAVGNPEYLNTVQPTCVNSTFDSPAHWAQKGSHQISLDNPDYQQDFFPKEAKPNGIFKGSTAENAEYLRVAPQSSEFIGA
T1 sequence (P00533 25-1210 L858R): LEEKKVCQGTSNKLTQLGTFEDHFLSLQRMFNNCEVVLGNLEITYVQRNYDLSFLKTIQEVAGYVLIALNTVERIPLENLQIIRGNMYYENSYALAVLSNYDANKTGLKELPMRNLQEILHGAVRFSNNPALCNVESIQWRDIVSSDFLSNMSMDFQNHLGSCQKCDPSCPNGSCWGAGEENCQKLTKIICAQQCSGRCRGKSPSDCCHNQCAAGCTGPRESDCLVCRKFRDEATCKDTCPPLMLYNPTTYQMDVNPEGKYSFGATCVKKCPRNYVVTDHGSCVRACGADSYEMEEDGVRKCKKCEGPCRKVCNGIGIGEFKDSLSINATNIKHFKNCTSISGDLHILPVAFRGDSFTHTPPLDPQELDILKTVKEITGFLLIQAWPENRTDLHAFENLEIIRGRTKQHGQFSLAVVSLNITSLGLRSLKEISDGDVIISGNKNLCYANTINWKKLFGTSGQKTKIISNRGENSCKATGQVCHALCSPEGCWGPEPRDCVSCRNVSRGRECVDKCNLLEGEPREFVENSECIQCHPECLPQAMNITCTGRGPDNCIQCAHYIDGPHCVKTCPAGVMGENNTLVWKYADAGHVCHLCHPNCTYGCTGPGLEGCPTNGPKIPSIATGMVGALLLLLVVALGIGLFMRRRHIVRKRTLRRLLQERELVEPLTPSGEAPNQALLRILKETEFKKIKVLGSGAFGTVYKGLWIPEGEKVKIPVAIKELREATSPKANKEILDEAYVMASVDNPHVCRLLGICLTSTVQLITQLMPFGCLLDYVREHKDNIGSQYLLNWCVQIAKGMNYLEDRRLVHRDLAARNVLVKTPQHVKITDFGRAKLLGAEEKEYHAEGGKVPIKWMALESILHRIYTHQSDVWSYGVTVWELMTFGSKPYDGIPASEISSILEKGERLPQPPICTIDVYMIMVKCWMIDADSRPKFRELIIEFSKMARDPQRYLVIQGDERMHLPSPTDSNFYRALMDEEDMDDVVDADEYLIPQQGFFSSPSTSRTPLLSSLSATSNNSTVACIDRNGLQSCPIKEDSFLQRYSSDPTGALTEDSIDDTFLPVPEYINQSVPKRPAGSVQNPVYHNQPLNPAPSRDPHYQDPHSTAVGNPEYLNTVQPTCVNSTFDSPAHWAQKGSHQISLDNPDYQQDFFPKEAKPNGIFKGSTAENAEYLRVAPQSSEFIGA
T2 sequence (P00533 with tags, fused parts or gaps DEL746-750 limits assumed): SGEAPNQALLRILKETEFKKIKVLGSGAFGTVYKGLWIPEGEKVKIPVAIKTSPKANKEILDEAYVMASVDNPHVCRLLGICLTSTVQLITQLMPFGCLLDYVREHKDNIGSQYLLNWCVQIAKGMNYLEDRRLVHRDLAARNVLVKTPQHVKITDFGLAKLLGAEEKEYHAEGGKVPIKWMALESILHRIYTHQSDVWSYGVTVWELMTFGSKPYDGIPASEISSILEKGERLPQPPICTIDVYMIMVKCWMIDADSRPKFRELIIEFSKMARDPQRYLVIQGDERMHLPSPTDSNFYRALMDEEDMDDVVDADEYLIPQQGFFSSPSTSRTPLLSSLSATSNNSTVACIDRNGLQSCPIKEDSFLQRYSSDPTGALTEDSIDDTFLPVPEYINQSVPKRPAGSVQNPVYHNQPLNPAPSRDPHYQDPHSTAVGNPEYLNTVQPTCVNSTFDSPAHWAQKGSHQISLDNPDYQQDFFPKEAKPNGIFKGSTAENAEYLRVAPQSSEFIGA

Row | IC50 [1] | IC50 [2] | IC50 [3] | Compound
1 | ≤ 10 nM | ≤ 10 nM | ≤ 10 nM | Cn1cc(-c2cc(O[C@H]3CNC[C@H](F)C3)c3c(Nc4ccc5ncsc5c4)ncnc3c2)cn1 (racemic) [Example 331, trans-N-(5-(((3R,5R)-5-fluoropiperidin-3-yl)oxy)-7-(1-methyl-1H-pyrazol-4-yl)quinazolin-4-yl)benzo[d]thiazol-6-amine and N-(5-(((3S,5S)-5-fluoropiperidin-3-yl)oxy)-7-(1-methyl-1H-pyrazol-4-yl)quinazolin-4-yl)benzo[d]thiazol-6-amine]
2 | ≤ 10 nM | ≤ 10 nM | ≤ 10 nM | CN1CC[C@@H](Oc2cc(-c3cnn(C)c3)cc3ncnc(Nc4ccc5ncsc5c4)c23)[C@@H](F)C1 (racemic) [Example 339, cis-N-(5-(((3S,4R)-3-fluoro-1-methylpiperidin-4-yl)oxy)-7-(1-methyl-1H-pyrazol-4-yl)quinazolin-4-yl)benzo[d]thiazol-6-amine]
3 | ≤ 10 nM | ≤ 10 nM | ≤ 10 nM | CN1CC[C@H](Oc2cc(-c3cnn(C)c3)cc3ncnc(Nc4ccc5ncsc5c4)c23)[C@@H](F)C1 (racemic) [Example 343, trans-N-(5-(((3S,4S)-3-fluoro-1-methylpiperidin-4-yl)oxy)-7-(1-methyl-1H-pyrazol-4-yl)quinazolin-4-yl)benzo[d]thiazol-6-amine]
4 | ≤ 10 nM | ≤ 10 nM | ≤ 10 nM | Cn1cc(-c2cc(O[C@H]3CCNC[C@@H]3F)c3c(Nc4ccc5ncsc5c4)ncnc3c2)c(OC(F)F)n1 (racemic) [Example 370, N-(7-(3-(difluoromethoxy)-1-methyl-1H-pyrazol-4-yl)-5-(((3S,4S)-3-fluoropiperidin-4-yl)oxy)quinazolin-4-yl)benzo[d]thiazol-6-amine]
5 | 10.1 to 50 nM | 10.1 to 50 nM | ≤ 10 nM | COc1nn(C)cc1-c1cc(O[C@H]2CNC[C@H]2F)c2c(Nc3ccc4ncsc4c3)ncnc2c1 (racemic) [Example 371, N-(5-(((3S,4R)-4-fluoropyrrolidin-3-yl)oxy)-7-(3-methoxy-1-methyl-1H-pyrazol-4-yl)quinazolin-4-yl)benzo[d]thiazol-6-amine and N-(5-(((3R,4S)-4-fluoropyrrolidin-3-yl)oxy)-7-(3-methoxy-1-methyl-1H-pyrazol-4-yl)quinazolin-4-yl)benzo[d]thiazol-6-amine]
6 | ≤ 10 nM | 10.1 to 50 nM | ≤ 10 nM | COc1nn(C)cc1-c1cc(O[C@@H]2CN(C)C[C@H]2F)c2c(Nc3ccc4ncsc4c3)ncnc2c1 (racemic) [Example 376, N-(5-(((3S,4S)-4-fluoro-1-methylpyrrolidin-3-yl)oxy)-7-(3-methoxy-1-methyl-1H-pyrazol-4-yl)quinazolin-4-yl)benzo[d]thiazol-6-amine and N-(5-(((3R,4R)-4-fluoro-1-methylpyrrolidin-3-yl)oxy)-7-(3-methoxy-1-methyl-1H-pyrazol-4-yl)quinazolin-4-yl)benzo[d]thiazol-6-amine]
7 | 10.1 to 50 nM | > 50.1 nM | ≤ 10 nM | Cn1cc(-c2cc(O[C@@H]3CNC[C@@H]3F)c3c(Nc4ccc5ncsc5c4)ncnc3c2)cn1 (racemic) [Example 379, N-(5-(((3R,4S)-4-fluoropyrrolidin-3-yl)oxy)-7-(1-methyl-1H-pyrazol-4-yl)quinazolin-4-yl)benzo[d]thiazol-6-amine]
8 | ≤ 10 nM | ≤ 10 nM | ≤ 10 nM | Cn1cc(-c2cc(O[C@H]3COC[C@H]3F)c3c(Nc4ccc5ncsc5c4)ncnc3c2)cn1 (racemic) [Example A10, N-(5-(((3S,4R)-4-fluorotetrahydrofuran-3-yl)oxy)-7-(1-methyl-1H-pyrazol-4-yl)quinazolin-4-yl)benzo[d]thiazol-6-amine]
9 | 10.1 to 50 nM | > 50.1 nM | ≤ 10 nM | Cn1cc(-c2cc(O[C@H]3CNCC[C@@H]3O)c3c(Nc4ccc5ncsc5c4)ncnc3c2)cn1 (racemic) [Example A45, (3S,4S)-3-((4-(benzo[d]thiazol-6-ylamino)-7-(1-methyl-1H-pyrazol-4-yl)quinazolin-5-yl)oxy)piperidin-4-ol]
10 | ≤ 10 nM | ≤ 10 nM | ≤ 10 nM | C[C@@H](Oc1cc(-c2cnn(C)c2)cc2ncnc(Nc3ccc4ncsc4c3)c12)C(CO)CN(C)C (mixture of isomers) [Example A55, rac-(3R)-3-((4-(benzo[d]thiazol-6-ylamino)-7-(1-methyl-1H-pyrazol-4-yl)quinazolin-5-yl)oxy)-2-((dimethylamino)methyl)butan-1-ol]
11 | ≤ 10 nM | ≤ 10 nM | ≤ 10 nM | Cn1cc(-c2cc(OC3CCCOC3)c3c(Nc4ccc5ncsc5c4)ncnc3c2)cn1 (single isomer, unassigned) [Example 6]
12 | ≤ 10 nM | 10.1 to 50 nM | ≤ 10 nM | Cn1cc(-c2cc(OC3CCCOC3)c3c(Nc4ccc5ncsc5c4)ncnc3c2)cn1 (single isomer, unassigned) [Example 7]
13 | ≤ 10 nM | ≤ 10 nM | ≤ 10 nM | CN1CC[C@H](Oc2cc(-c3cnn(C)c3)cc3ncnc(Nc4ccc5ncsc5c4)c23)C1=O (single isomer, unassigned) [Example 23]
14 | ≤ 10 nM | 10.1 to 50 nM | ≤ 10 nM | CN1CC[C@H](Oc2cc(-c3cnn(C)c3)cc3ncnc(Nc4ccc5ncsc5c4)c23)C1=O (single isomer, unassigned) [Example 24]
15 | ≤ 10 nM | 10.1 to 50 nM | ≤ 10 nM | Cn1cc(-c2cc(OCC3CCOC3)c3c(Nc4ccc5ncsc5c4)ncnc3c2)cn1 (single isomer, unassigned) [Example 41]
16 | ≤ 10 nM | 10.1 to 50 nM | ≤ 10 nM | Cn1cc(-c2cc(O[C@@H]3CCOC[C@@H]3F)c3c(Nc4ccc5ncsc5c4)ncnc3c2)cn1 (single isomer, unassigned) [Example 43]
17 | ≤ 10 nM | 10.1 to 50 nM | ≤ 10 nM | Cn1cc(-c2cc(O[C@H]3CCOC[C@@H]3F)c3c(Nc4ccc5ncsc5c4)ncnc3c2)cn1 (single isomer, unassigned) [Example 45]
18 | ≤ 10 nM | ≤ 10 nM | ≤ 10 nM | Cn1cc(-c2cc(O[C@H]3CCOC[C@@H]3F)c3c(Nc4ccc5ncsc5c4)ncnc3c2)cn1 (single isomer, unassigned) [Example 46]
19 | ≤ 10 nM | 10.1 to 50 nM | ≤ 10 nM | CN1CCC[C@@H](Oc2cc(-c3cnn(C)c3)cc3ncnc(Nc4ccc5ncsc5c4)c23)C1 (single isomer, unassigned) [Example 47]
20 | ≤ 10 nM | ≤ 10 nM | ≤ 10 nM | C[C@@H](Oc1cc(-c2cnn(C)c2)cc2ncnc(Nc3ccc4ncsc4c3)c12)C(F)F (single isomer, unassigned) [Example 52]
21 | ≤ 10 nM | 10.1 to 50 nM | ≤ 10 nM | CN1CC[C@@](C)(COc2cc(-c3cnn(C)c3)cc3ncnc(Nc4ccc5ncsc5c4)c23)C1=O (single isomer, unassigned) [Example 55]

Row | Compound | IC50 [1] | IC50 [2] | IC50 [3]
22 | CN(C)[C@H]1CC[C@H]1Oc1cc(-c2cnn(C)c2)cc2ncnc(Nc3ccc4ncsc4c3)c12 (racemic) [Example A50, N-(5-((1R,2S)-2-(dimethylamino)cyclobutoxy)-7-(1-methyl-1H-pyrazol-4-yl)quinazolin-4-yl)benzo[d]thiazol-6-amine] | ≤ 10 nM | ≤ 10 nM | ≤ 10 nM
